# Read-outs that look alike come from different tables or passages of the source.
# What was measured:
# [1] = biological target: T1, CcSHMT1 (Erigeron canadensis, UniProt A0A8M0FGR5, S186A); experiment: microscale thermophoresis (MST); format: binding
# T1 construct: total CDS (1539 bp)
# T1 sequence (A0A8M0FGR5 1-513 S186A): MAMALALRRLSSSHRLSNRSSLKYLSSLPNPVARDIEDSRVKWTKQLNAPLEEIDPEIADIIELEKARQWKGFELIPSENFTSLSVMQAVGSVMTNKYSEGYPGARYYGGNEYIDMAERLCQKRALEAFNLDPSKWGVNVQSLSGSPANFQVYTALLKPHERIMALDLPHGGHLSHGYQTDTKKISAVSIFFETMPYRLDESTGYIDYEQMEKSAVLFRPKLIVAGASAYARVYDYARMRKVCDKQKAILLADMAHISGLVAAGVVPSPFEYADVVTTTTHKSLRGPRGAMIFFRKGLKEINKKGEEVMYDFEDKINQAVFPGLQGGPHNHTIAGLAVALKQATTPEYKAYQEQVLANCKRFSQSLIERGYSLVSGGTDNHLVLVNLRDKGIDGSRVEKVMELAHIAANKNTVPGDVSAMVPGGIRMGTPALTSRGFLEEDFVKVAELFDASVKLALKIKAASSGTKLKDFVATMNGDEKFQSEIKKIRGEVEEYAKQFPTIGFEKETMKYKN
# [2] = biological target: T2, CcSHMT1 (Erigeron canadensis, UniProt A0A8M0FGR5, A187T); experiment: microscale thermophoresis (MST); format: binding
# T2 construct: total CDS (1539 bp); homology model is a tetramer
# T2 sequence (A0A8M0FGR5 1-513 A187T): T1 sequence (A0A8M0FGR5 1-513 S186A)
# [3] = biological target: T3, CcSHMT1 (Erigeron canadensis, UniProt A0A8M0FGR5, V188L); experiment: microscale thermophoresis (MST); format: binding
# T3 construct: total CDS (1539 bp)
# T3 sequence (A0A8M0FGR5 1-513 V188L): T1 sequence (A0A8M0FGR5 1-513 S186A)
# [4] = biological target: T4, CcSHMT1 (Erigeron canadensis, UniProt A0A8M0FGR5); experiment: SHMT activity by benzaldehyde production from DL-β-phenylserine; format: biochemical; details: competitive versus DL-β-phenylserine; CAP 0.63-44.23 μM, assayed 0.5 h after CAP addition
# T4 construct: total CDS (1539 bp); homology model is a tetramer
# T4 sequence (A0A8M0FGR5 1-513): T1 sequence (A0A8M0FGR5 1-513 S186A)
# [5] = biological target: T4, CcSHMT1; experiment: microscale thermophoresis (MST); format: binding
Compound,Kd [1] [µM],Kd [2] [µM],Kd [3] [µM],IC50 [4] [µM],Kd ([5]; read-out: Kd) [µM],"Kd ([5]; negative control, bound is the highest concentration tested, not a printed Kd, read-out: no binding up to 50 μM) [µM]"
CCCCCCCC(=O)O [Caprylic acid],15.5,51.9,28,23.1,12.3,
"COc1cc(C(=O)O)ccc1O [Vanillic acid, reference compound]",,,,,,> 50

# Reference: article doi:10.1101/2023.12.12.571245v1, “Serine hydroxymethyl transferase is a binding target of caprylic acid: Uncovering a novel molecular target for a herbicide and for producing caprylic acid-tolerant crops” (biorxiv, 2023)
